# Reference: patent US20090054392A1, “NAPHTHYLPYRIMIDINE, NAPHTHYLPYRAZINE AND NAPHTHYLPYRIDAZINE ANALOGS AND THEIR USE AS AGONISTS OF THE WNT-BETA-CATENIN CELLULAR MESSAGING SYSTEM” (Wyeth, priority 2007, published 2009)
# pEC50: −log10 of the molar value. Read-outs that look alike come from different tables or passages of the source.
# Tested on: Dkk1-LRP5-TCF-Luciferase
# Assay: Functional Dkk1-LRP5-TCF-Luciferase Assay in U2OS Cells
# Settings: for fold induction at 20 µM / fold induction at 2 µM / pEC50: Homo sapiens, U2OS; for fold induction at 20 µM: read-out: C = TCF ACTIVITY/DMSO CONTROL Fold induction @ 20.0 uM, 20.0 uM compound; for A = MAX FOLD Induction/DMSO CONTROL: maximum fold induction over DMSO control
# [1] = read-out: B = TCF ACTIVITY/DMSO CONTROL Fold induction @ 2.0 uM, 2.0 uM compound
structure (smiles),measurement,setting,value
COc1ccc(-c2ccc3cc(-c4ccnc(N5CCC(CN)CC5)n4)ccc3c2)cc1 [1-(1-{4-[6-(4-methoxyphenyl)-2-naphthyl]pyrimidin-2-yl}piperidin-4-yl)methanamine],fold induction at 20 µM,,1.9
CCCN1CCC(N(C)c2nccc(-c3ccc4ccccc4c3)n2)CC1 [N-methyl-4-(2-naphthyl)-N-(1-propylpiperidin-4-yl)pyrimidin-2-amine],fold induction at 2 µM,[1],1.74
Cc1ccc(S(=O)(=O)N[C@H]2CC[C@H](Nc3nccc(-c4ccc5ccccc5c4)n3)CC2)cc1 [4-methyl-N-(trans-4-{[4-(2-naphthyl)pyrimidin-2-yl]amino}cyclohexyl)benzenesulfonamide],fold induction at 2 µM,[1],1.78
same,fold induction at 20 µM,,1.13
same,A = MAX FOLD Induction/DMSO CONTROL,,1.230 fold
O=C(N[C@@H]1CCN(c2nccc(-c3ccc4ccccc4c3)n2)C1)N1CCOCC1 [N-{(3R)-1-[4-(2-naphthyl)pyrimidin-2-yl]pyrrolidin-3-yl}morpholine-4-carboxamide],fold induction at 2 µM,[1],1.91
"O=C(N1CCCN(c2nccc(-c3ccc4ccccc4c3)n2)CC1)C(F)(F)F [1-[4-(2-naphthyl)pyrimidin-2-yl]-4-(trifluoroacetyl)-1,4-diazepane]",fold induction at 20 µM,,1.24
NCc1ccc(-c2nccc(-c3ccc4ccccc4c3)n2)cc1 [1-{4-[4-(2-naphthyl)pyrimidin-2-yl]phenyl}methanamine],fold induction at 2 µM,[1],2.5
c1ccc2cc(-c3ccnc(N4CC[C@@H](NCCN5CCOCC5)C4)n3)ccc2c1 [(3R)—N-(2-morpholin-4-ylethyl)-1-[4-(2-naphthyl)pyrimidin-2-yl]pyrrolidin-3-amine],fold induction at 2 µM,[1],1.71
same,fold induction at 20 µM,,0.21
CC(C)NC(=O)N[C@H]1CCN(c2nccc(-c3ccc4ccccc4c3)n2)C1 [N-isopropyl-N′-{(3S)-1-[4-(2-naphthyl)pyrimidin-2-yl]pyrrolidin-3-yl}urea],fold induction at 2 µM,[1],1.12
same,fold induction at 20 µM,,0.79
"CN(C)CCN[C@@H]1CCN(c2nccc(-c3ccc4ccccc4c3)n2)C1 [N,N-dimethyl-N′-{(3R)-1-[4-(2-naphthyl)pyrimidin-2-yl]pyrrolidin-3-yl}ethane-1,2-diamine]",fold induction at 2 µM,[1],2.5
CN(c1nccc(-c2ccc3ccccc3c2)n1)C1CCN(C(N)=O)CC1 [4-{methyl[4-(2-naphthyl)pyrimidin-2-yl]amino}piperidine-1-carboxamide],fold induction at 2 µM,[1],1.65
same,fold induction at 20 µM,,0.63
c1ccc2cc(-c3ccnc(N4CC[C@H](N5CCOCC5)C4)n3)ccc2c1 [4-{(3S)-1-[4-(2-naphthyl)pyrimidin-2-yl]pyrrolidin-3-yl}morpholine],pEC50,,5.12
same,fold induction at 2 µM,[1],1.17
same,fold induction at 20 µM,,3.06
same,A = MAX FOLD Induction/DMSO CONTROL,,2.405 fold
CC(C)CNCC1CCN(c2nccc(-c3ccc4ccccc4c3)n2)CC1 [2-methyl-N-({1-[4-(2-naphthyl)pyrimidin-2-yl]piperidin-4-yl}methyl)propan-1-amine],fold induction at 2 µM,[1],1.4
same,fold induction at 20 µM,,0.14
same,A = MAX FOLD Induction/DMSO CONTROL,,1.480 fold
"O=C(NCC[C@@H]1CCCN1c1nccc(-c2ccc3ccccc3c2)n1)C(F)(F)F [2,2,2-trifluoro-N-(2-{(2S)-1-[4-(2-naphthyl)pyrimidin-2-yl]pyrrolidin-2-yl}ethyl)acetamide]",fold induction at 2 µM,[1],1.44
same,fold induction at 20 µM,,0.89
"O=C(NCC1CN(c2nccc(-c3ccc4ccccc4c3)n2)C1)C(F)(F)F [2,2,2-trifluoro-N-({1-[4-(2-naphthyl)pyrimidin-2-yl]azetidin-3-yl}methyl)acetamide]",fold induction at 2 µM,[1],1.77
CN(c1nccc(-c2ccc3ccccc3c2)n1)C1CCN(C(=N)N)CC1 [4-{methyl[4-(2-naphthyl)pyrimidin-2-yl]amino}piperidine-1-carboximidamide],fold induction at 2 µM,[1],1.74
"c1ccc2cc(-c3ccnc(N4C[C@H]5CNC[C@H]5C4)n3)ccc2c1 [(3aR*,6aS*)-2-[4-(2-naphthyl)pyrimidin-2-yl]octahydropyrrolo[3,4-c]pyrrole]",fold induction at 2 µM,[1],1.73
same,fold induction at 20 µM,,0.01
CO[C@H]1CCN(c2nccc(-c3ccc4ccccc4c3)n2)C1 [2-[(3S)-3-methoxypyrrolidin-1-yl]-4-(2-naphthyl)pyrimidine],pEC50,,5.59
same,fold induction at 2 µM,[1],1.48
same,fold induction at 20 µM,,2.27
same,A = MAX FOLD Induction/DMSO CONTROL,,1.755 fold
NC(=O)C1CCCN(c2nccc(-c3ccc4ccccc4c3)n2)C1 (stereo not shown) [1-[4-(2-naphthyl)pyrimidin-2-yl]piperidine-3-carboxamide],pEC50,,5.90
same,fold induction at 2 µM,[1],2.17
same,fold induction at 20 µM,,2.7
same,A = MAX FOLD Induction/DMSO CONTROL,,2.230 fold
CCN(CCO)C(=O)[C@@H]1CCCN1c1nccc(-c2ccc3ccccc3c2)n1 [N-ethyl-N-(2-hydroxyethyl)-1-[4-(2-naphthyl)pyrimidin-2-yl]-L-prolinamide],fold induction at 2 µM,[1],1.03
same,fold induction at 20 µM,,1.63
"CCN(CC)C(=O)N1CCC(Nc2nccc(-c3ccc4ccccc4c3)n2)CC1 [N,N-diethyl-4-{[4-(2-naphthyl)pyrimidin-2-yl]amino}piperidine-1-carboxamide]",fold induction at 2 µM,[1],1.65
"CN(C)CCCN1CCN(c2nccc(-c3ccc4ccccc4c3)n2)CC1 [N,N-dimethyl-3-{4-[4-(2-naphthyl)pyrimidin-2-yl]piperazin-1-yl}propan-1-amine]",fold induction at 2 µM,[1],1.87
"CN(C)CCN1CCN(c2nccc(-c3ccc4ccccc4c3)n2)CC1 [N,N-dimethyl-2-{4-[4-(2-naphthyl)pyrimidin-2-yl]piperazin-1-yl}ethanamine]",fold induction at 2 µM,[1],2.55
same,fold induction at 20 µM,,0.01
same,A = MAX FOLD Induction/DMSO CONTROL,,2.440 fold
NC[C@H]1CC[C@H](Oc2nccc(-c3ccc4ccccc4c3)n2)CC1 [1-(trans-4-{[4-(2-naphthyl)pyrimidin-2-yl]oxy}cyclohexyl)methanamine],pEC50,,6.34
"CCN(CC)C(=O)N1CCCN(c2nccc(-c3ccc4ccccc4c3)n2)CC1 [N,N-diethyl-4-[4-(2-naphthyl)pyrimidin-2-yl]-1,4-diazepane-1-carboxamide]",pEC50,,4.52
same,fold induction at 20 µM,,1.49
same,A = MAX FOLD Induction/DMSO CONTROL,,3.070 fold
CC(C)(C)OC(=O)N1CCN(c2nccc(-c3ccc4ccccc4c3)n2)CC1 [tert-butyl 4-[4-(2-naphthyl)pyrimidin-2-yl]piperazine-1-carboxylate],fold induction at 2 µM,[1],0.98
same,fold induction at 20 µM,,1.94
c1ccc2cc(-c3ccnc(N4CCNCC4)n3)ccc2c1 [4-(2-naphthyl)-2-piperazin-1-ylpyrimidine],fold induction at 2 µM,read-out: B = TCF ACTIVITY/DMSO CONTROL Fold induction @ 2.0 uM,2.64
same,A = MAX FOLD Induction/DMSO CONTROL,,2.050 fold
c1ccc2cc(-c3ccnc(N4CCC(CN5CCC5)C4)n3)ccc2c1 (stereo not shown) [2-[3-(azetidin-1-ylmethyl)pyrrolidin-1-yl]-4-(2-naphthyl)pyrimidine],fold induction at 2 µM,[1],1.73
same,A = MAX FOLD Induction/DMSO CONTROL,,2.500 fold
COC(=O)NCC1CCN(c2nccc(-c3ccc4ccccc4c3)n2)CC1 [methyl ({1-[4-(2-naphthyl)pyrimidin-2-yl]piperidin-4-yl}methyl)carbamate],fold induction at 2 µM,[1],1.21
same,fold induction at 20 µM,,1.59
O=C([C@H]1CCCN1c1nccc(-c2ccc3ccccc3c2)n1)N1CCCCC1 [4-(2-naphthyl)-2-[(2R)-2-(piperidin-1-ylcarbonyl)pyrrolidin-1-yl]pyrimidine],fold induction at 2 µM,[1],1.01
CC(C)(C)OC(=O)N[C@H](C1CCN(c2nccc(-c3ccc4ccccc4c3)n2)CC1)C(C)(C)O [tert-butyl ((1R)-2-hydroxy-2-methyl-1-{1-[4-(2-naphthyl)pyrimidin-2-yl]piperidin-4-yl}propyl)carbamate],fold induction at 2 µM,[1],1.79
CC(C)(C)OC(=O)N1CCN(C[C@@H]2CCN(c3nccc(-c4ccc5ccccc5c4)n3)C2)CC1 [tert-butyl 4-({(3S)-1-[4-(2-naphthyl)pyrimidin-2-yl]pyrrolidin-3-yl}methyl)piperazine-1-carboxylate],fold induction at 2 µM,[1],1.16
same,fold induction at 20 µM,,0.85
CCNC(=O)N1CCC(N(C)c2nccc(-c3ccc4ccccc4c3)n2)CC1 [N-ethyl-4-{methyl[4-(2-naphthyl)pyrimidin-2-yl]amino}piperidine-1-carboxamide],fold induction at 2 µM,[1],1.2
same,fold induction at 20 µM,,1.45
CN(c1nccc(-c2ccc3ccccc3c2)n1)C1CCN(Cc2ccccc2)CC1 [N-(1-benzylpiperidin-4-yl)-N-methyl-4-(2-naphthyl)pyrimidin-2-amine],fold induction at 2 µM,[1],1.55
same,fold induction at 20 µM,,1.24
NC[C@H]1CC[C@@H](c2nccc(-c3ccc4ccccc4c3)n2)CC1 [1-{cis-4-[4-(2-naphthyl)pyrimidin-2-yl]cyclohexyl}methanamine],fold induction at 2 µM,[1],3.4
c1ccc2cc(-c3ccnc(N4CC[C@@H](N5CCCCC5)C4)n3)ccc2c1 [4-(2-naphthyl)-2-[(3R)-3-piperidin-1-ylpyrrolidin-1-yl]pyrimidine],fold induction at 2 µM,[1],1.29
same,fold induction at 20 µM,,0.06
"O=C(NC1CCCN(c2nccc(-c3ccc4ccccc4c3)n2)CC1)C(F)(F)F (stereo not shown) [2,2,2-trifluoro-N-{1-[4-(2-naphthyl)pyrimidin-2-yl]azepan-4-yl}acetamide]",fold induction at 2 µM,[1],1.1
same,fold induction at 20 µM,,1.87
"c1ccc2cc(-c3ccnc(N4CCC5(CCNCC5)C4)n3)ccc2c1 [2-[4-(2-naphthyl)pyrimidin-2-yl]-2,8-diazaspiro[4.5]decane]",fold induction at 2 µM,[1],1.7
"CN(C)[C@@H]1CCN([C@@H]2CCN(c3nccc(-c4ccc5ccccc5c4)n3)C2)C1 [(3R,3′R)-N,N-dimethyl-1′-[4-(2-naphthyl)pyrimidin-2-yl]-1,3′-bipyrrolidin-3-amine]",fold induction at 2 µM,[1],2.71
same,fold induction at 20 µM,,0.01
same,A = MAX FOLD Induction/DMSO CONTROL,,1.710 fold
"CN(CCN(C)S(=O)(=O)N(C)C)[C@@H]1CCN(c2nccc(-c3ccc4ccccc4c3)n2)C1 [N,N,N′-trimethyl-N′-[2-(methyl{(3R)-1-[4-(2-naphthyl)pyrimidin-2-yl]pyrrolidin-3-yl}amino)ethyl]sulfamide]",fold induction at 2 µM,[1],1.3
